The Deep4Chem optical property database
Where “and” joins values, the source holds several entries; their conditions need not be identical. Equal values may be shown once.

Test: solvent given as SMILES
[1] = in O=P(c1ccccc1)(c1ccccc1)c1ccccc1Oc1ccccc1P(=O)(c1ccccc1)c1ccccc1
[2] = in c1cc(-c2cccc(-n3c4ccccc4c4ccccc43)c2)cc(-n2c3ccccc3c3ccccc32)c1

CC(C)(C)c1cc2c3cc(C(C)(C)C)c(-c4cc5cc6c7cccc8cccc(c9cc(C(C)(C)C)cc(c5cc4C(C)(C)C)c96)c87)cc3cc3c4cccc5cccc(c(c1)c23)c54
fluorescence lifetime (in CC1CCCCC1): 3.4 ns

CCN(CC)c1ccc2c(-c3ccccc3C(=O)O)c3c([o+]c2c1)/C(=C/Nc1ccccc1)CCC3
fluorescence lifetime (in CCO): 5.19 ns
fluorescence lifetime (in ClC(Cl)Cl): 3.16 ns
fluorescence lifetime (in ClCCl): 5.8 ns

CN(CC(O)c1cccc(O)c1)c1ccc([N+](=O)[O-])c(C2CC(c3cccc4ccccc34)=NN2c2ccccc2)c1 (configuration not stated)
fluorescence lifetime (in C1CCCCC1): 1.14 ns
fluorescence lifetime (in C1CCOC1): 3.56 ns
fluorescence lifetime (in C1COCCO1): 3.58 ns
fluorescence lifetime (in CC#N): 3.95 ns
fluorescence lifetime (in CC(C)O): 3.42 ns
fluorescence lifetime (in CCOC(C)=O): 4.01 ns
fluorescence lifetime (in CCOCC): 2 ns
fluorescence lifetime (in CO): 3.01 ns
fluorescence lifetime (in Cc1ccccc1): 1.72 ns
fluorescence lifetime (in ClC(Cl)Cl): 2.8 ns
fluorescence lifetime (in O): 2.42 ns

N#CC1=c2c3cccc4c(Br)ccc(c43)n2[B-](F)(F)[n+]2ccccc21
fluorescence lifetime (in ClCCl): 7.8 ns

COc1ccc(C#Cc2c3ccccc3c(C#Cc3ccc(OC)cc3)c3cc4ccccc4cc23)cc1
fluorescence lifetime (in ClCCl): 7 ns

CN(C)c1ccc(C#Cc2ccccc2)cc1
fluorescence lifetime (in C1CCCCC1): 0.38 ns
fluorescence lifetime (in C1CCOC1): 0.589 ns
fluorescence lifetime (in C1COCCO1): 0.71 ns
fluorescence lifetime (in CC1CCCO1): 0.414 ns
fluorescence lifetime (in CC#N): 1.25 ns
fluorescence lifetime (in CC(C)=O): 1.83 ns
fluorescence lifetime (in CC(C)CC(C)(C)C): 0.35 ns
fluorescence lifetime (in CCCCCCCCCCCCCCCC): 0.43 ns
fluorescence lifetime (in CCCCCCCCCCCCCCCCCl): 0.66 ns
fluorescence lifetime (in CCOC(C)=O): 1.16 ns
fluorescence lifetime (in CCOCC): 0.411 ns
fluorescence lifetime (in CN(C)C=O): 1.24 ns
fluorescence lifetime (in CS(C)=O): 0.757 ns
fluorescence lifetime (in Cc1ccccc1): 0.58 ns

CCOC(=O)CN1C(=O)C2=C(c3ccc(N4CCCCC4)cc3)N(CC(=O)OCC)C(=O)C2=C1c1ccccc1
fluorescence lifetime (in CC#N): 2.7 ns
fluorescence lifetime (in CS(C)=O): 6.7 ns
fluorescence lifetime (in Cc1ccccc1): 4 ns

COc1ccc(-c2cc3c(s2)c(-c2ccccc2)cc(=O)n3C)cc1
fluorescence lifetime (in ClCCl): 4.69 ns

O=C(O)CCCCCNC(=O)c1cccc2c(=O)c3ccccc3[nH]c12
fluorescence lifetime (in O): 4.2 ns

F[B-]1(F)Oc2ccccc2-c2cc(-n3c4ccc(-c5ccccc5)cc4c4cc(-c5ccccc5)ccc43)cc[n+]21
fluorescence lifetime [1]: 6.3 ns

FC(F)(F)C(F)(F)C(F)(F)C1=NC2=C(Oc3ccccc3)C=C3c4cc(Oc5ccccc5)c5nc(C(F)(F)C(F)(F)C(F)(F)F)nc6c(Oc7ccccc7)cc(c4c56)=C4C=C(Oc5ccccc5)C(=N1)C2C34 (configuration not stated)
fluorescence lifetime (in C1CCOC1): 2.8 ns

CC1(C)c2ccccc2N(c2ccccc2)c2ccc(C(=O)c3ccc4c(c3)C(C)(C)c3ccccc3N4c3ccccc3)cc21
fluorescence lifetime [1]: 0.81 ns

CCC12C(=C3C(=C4c5ccc(-c6ccc(CO)cc6)cc5S(=O)(=O)C41CC)C(F)(F)C(F)(F)C3(F)F)c1ccc(-c3ccc(CO)cc3)cc1S2(=O)=O (configuration not stated)
fluorescence lifetime (in C1COCCO1): 2.9 ns

Cc1ccc(C2=C3C=CC(Cl)=[N+]3[B-](F)(F)n3c(Cl)ccc32)cc1
fluorescence lifetime (in C1CCCCC1): 2.1 ns
fluorescence lifetime (in C1CCOC1): 2.1 ns
fluorescence lifetime (in CC#N): 1.87 ns
fluorescence lifetime (in CCOC(C)=O): 2.07 ns
fluorescence lifetime (in CO): 1.88 ns
fluorescence lifetime (in Cc1ccccc1): 3.26 ns
fluorescence lifetime (in ClC(Cl)Cl): 3.66 ns

Cc1cc2nc3[nH]c(=O)n(C)c(=O)c3nc2cc1C
fluorescence lifetime (in CC#N): 0.64 ns

CC(C)(C)c1ccc2c(c1)c1cc(C(C)(C)C)ccc1n2-c1ccc(S(=O)(=O)c2ccc(-n3c4ccc(C(C)(C)C)cc4c4cc(C(C)(C)C)ccc43)cc2)cc1
fluorescence lifetime (in Cc1ccccc1): 5.3 ns
fluorescence lifetime [1]: 7.6 ns

CCOC(=O)c1ccccc1-c1c2ccc(=[N+](CC)CC)cc-2oc2c1c(=O)oc1c3c4c(cc12)CCCN4CCC3
fluorescence lifetime (in CCO): 0.43 ns
fluorescence lifetime (in ClC(Cl)Cl): 3.44 ns
fluorescence lifetime (in O): 0.13 ns

CC[Si](CC)(CC)Oc1cccc(O[Si](CC)(CC)CC)c1-c1c2ccccc2c(-c2c(O[Si](CC)(CC)CC)cccc2O[Si](CC)(CC)CC)c2ccccc12
fluorescence lifetime (in C1CCCCC1): 7.8 ns

CCOC(=O)C1(O)c2cc3ccc4cccc5ccc(c2C(=O)N1C(C)(C)C)c3c45 (configuration not stated)
fluorescence lifetime (in ClC(Cl)Cl): 5.11 ns

CC1=CC(C)=[N+]2C1=C(c1ccccc1)c1c(C)cc(C)n1[B-]2(F)F
fluorescence lifetime (in C1CCOC1): 3.73 ns
fluorescence lifetime (in CC#N): 3.81 ns
fluorescence lifetime (in CC(=O)C(C)(C)C): 3.39 ns
fluorescence lifetime (in CC(C)=O): 3.65 ns
fluorescence lifetime (in CCCCCC): 3.37 ns
fluorescence lifetime (in CCOC(C)=O): 3.98 ns
fluorescence lifetime (in CO): 3.9 ns
fluorescence lifetime (in Cc1ccccc1): 3.4 ns
fluorescence lifetime (in ClCCl): 3.97 ns

CN(C)c1ccc(/C=C/c2cc[n+](C)cc2)cc1
fluorescence lifetime (in ClC(Cl)Cl): 0.153 ns

CN1C(=CC2=C([O-])C(=CC3=[N+](C)c4ccccc4C3(C)C)C2=O)C(C)(C)c2cc(Cl)ccc21
fluorescence lifetime (in CO): 0.2 ns
fluorescence lifetime (in ClC(Cl)Cl): 1.05 ns

N#Cc1c(-n2c3ccccc3c3ccccc32)c(-n2c3ccccc3c3ccccc32)c(-n2c3ccccc3c3ccccc32)c(-n2c3ccccc3c3ccccc32)c1-n1c2ccccc2c2ccccc21
fluorescence lifetime (in Cc1ccccc1): 3.8 ns
fluorescence lifetime [2]: 3.2 ns

COC(=O)/C(C#N)=c1/cc/c(=c2/cc/c(=C(\C#N)C(=O)OC)s2)s1
fluorescence lifetime (in Cc1ccccc1): 0.016 ns

CCN1CCCc2cc3c(cc21)Oc1cc2c(cc1=N3)C(CS(=O)(=O)[O-])CC(C)(C)[N+]=2CCCC(=O)[O-] (configuration not stated)
fluorescence lifetime (in O): 3.6 ns

c1ccc(-c2nc(-c3ccc(-c4ccc(-c5ccc(-c6nc(-c7ccccc7)c(-c7ccccc7)o6)cc5)cc4)cc3)oc2-c2ccccc2)cc1
fluorescence lifetime (in C1COCCO1): 0.78 ns

CC1(C)c2ccccc2N(c2c(F)cc(-c3nnc(-c4ccccc4)o3)cc2F)c2ccccc21
fluorescence lifetime (in Cc1ccccc1): 8.8 ns

Oc1ccc2ccc(C3(O)C4CC5CC(C4)CC3C5)cc2c1 (configuration not stated)
fluorescence lifetime (in CC#N): 7.78 ns

Cc1ccc(-c2cc(-c3ccccc3)c(C#N)c(=S)[nH]2)cc1
fluorescence lifetime (in CC#N): 4.92 ns
fluorescence lifetime (in CCO): 4.79 ns
fluorescence lifetime (in ClC(Cl)(Cl)Cl): 1.22 ns

CN(C)c1ccc(/C=C/c2nc3c(ccc4ccccc43)s2)cc1
fluorescence lifetime (in C1CCCCC1): 0.1 ns and 0.13 ns
fluorescence lifetime (in CC#N): 0.1 ns and 0.13 ns

C[Si](C)(C)C#Cc1ccc2c3cccc4cccc(c5cccc1c52)c43
fluorescence lifetime (in C1CCCCC1): 4.2 ns

COC(=O)c1cc(=O)n(C)c2cc(-c3ccc4c(c3)OCO4)sc12
fluorescence lifetime (in ClCCl): 1.72 ns

COC(=O)/C=C/c1ccc2ccc3cccc4ccc1c2c34
fluorescence lifetime (in C1CCOC1): 2.8 ns
fluorescence lifetime (in CC#N): 2.4 ns
fluorescence lifetime (in CC(C)=O): 2.6 ns

COc1ccc(-c2c3ccccc3c(C#Cc3ccccc3)c3cc4ccccc4cc23)cc1
fluorescence lifetime (in ClCCl): 9.7 ns

c1ccc2c(c1)[nH]c1ncccc12
fluorescence lifetime (in CC#N): 13.3 ns
fluorescence lifetime (in CCCCCC): 9.1 ns

CCn1c2ccsc2c2c3nsnc3c3c4sccc4n(CC)c3c21
fluorescence lifetime (in C1CCOC1): 23.7 ns
fluorescence lifetime (in CCOC(C)=O): 24.2 ns
fluorescence lifetime (in CN(C)C=O): 22.1 ns
fluorescence lifetime (in Cc1ccccc1): 19.4 ns
fluorescence lifetime (in ClCCl): 16.6 ns

CCn1c2ccccc2c2cc(-c3cc(-c4ccc5c(c4)c4ccccc4n5CC)nc(-c4ccc(C#N)cc4)n3)ccc21
fluorescence lifetime (in C1CCOC1): 5.14 ns

c1ccc(-c2ccc(-c3ccc(-n4c5ccccc5c5ccccc54)cc3)c3nsnc23)cc1
fluorescence lifetime (in C1CCOC1): 7.52 ns
fluorescence lifetime (in CC(C)=O): 5.2 ns
fluorescence lifetime (in CCCCCC): 5.87 ns
fluorescence lifetime (in CCOCC): 7.2 ns

CCCCNc1nc(/C=C/c2ccccc2)[n+]([O-])c2c1CCCC2
fluorescence lifetime (in ClCCl): 8.9 ns

c1ccc(N(c2ccccc2)c2c3ccccc3cc3ccccc23)cc1
fluorescence lifetime (in Cc1ccccc1): 21 ns

N#Cc1ccc2[nH]ccc2c1
fluorescence lifetime (in C1CCOC1): 4.4 ns
fluorescence lifetime (in C1COCCO1): 4.2 ns
fluorescence lifetime (in CC#N): 4.4 ns
fluorescence lifetime (in CC(C)O): 4.6 ns
fluorescence lifetime (in CCO): 4.3 ns
fluorescence lifetime (in CO): 2.9 ns
fluorescence lifetime (in CS(C)=O): 7.1 ns
fluorescence lifetime (in NC=O): 5.4 ns
fluorescence lifetime (in O): 0.3 ns
fluorescence lifetime (in OCC(F)(F)F): 0.1 ns
fluorescence lifetime (in [2H]O[2H]): 0.4 ns

Cc1cc(-c2ccccc2)nc2c1ccc1nc(-c3ccccc3)cn12
fluorescence lifetime (in CC#N): 6.97 ns
fluorescence lifetime (in CCCCOC(C)=O): 6.04 ns
fluorescence lifetime (in CCOC(C)=O): 5.98 ns
fluorescence lifetime (in CO): 5.18 ns
fluorescence lifetime (in c1ccccc1): 5.55 ns

COc1cc2c(cc1-c1ccc(C#N)cc1)Cc1c3c(c4c(c1-2)-c1cc(OC)c(-c2ccc(C#N)cc2)cc1C4)C(=O)N(CCC(C)C)C3=O
fluorescence lifetime (in C1CCOC1): 2.1 ns

COC(=O)c1cc(=O)n(C)c2cc(-c3ccc(N4CCN(C)CC4)cc3)sc12
fluorescence lifetime (in ClCCl): 1.5 ns

Cc1cc(C)cc(C)c1
fluorescence lifetime (in C1CCCCC1): 73 ns

CC(C)(C)C#Cc1ccc2c3cccc4cccc(c5cccc1c52)c43
fluorescence lifetime (in C1CCCCC1): 4.3 ns

N#Cc1ccc2nc3c(=O)[nH]c(=O)[nH]c3nc2c1
fluorescence lifetime (in ClCCCl): 0.16 ns

COC(=O)C(NC(=O)OC(C)(C)C)c1ccc2oc(-c3ccc(N(C)C)cc3OC)nc2c1 (configuration not stated)
fluorescence lifetime (in CC1CCCCC1): 1.25 ns
fluorescence lifetime (in CC#N): 1.24 ns
fluorescence lifetime (in CO): 1.32 ns

COc1cc(N(c2ccccc2)c2ccccc2)ccc1C=C(C#N)C#N
fluorescence lifetime (in C1COCCO1): 0.04 ns
fluorescence lifetime (in CC#N): 0.02 ns
fluorescence lifetime (in CC(C)=O): 0.05 ns
fluorescence lifetime (in CCOC(C)=O): 0.07 ns
fluorescence lifetime (in CN(C)C=O): 0.03 ns
fluorescence lifetime (in CO): 0.02 ns
fluorescence lifetime (in Cc1ccccc1): 0.03 ns
fluorescence lifetime (in ClC(Cl)Cl): 0.1 ns
fluorescence lifetime (in ClCCl): 0.06 ns

CCCCCCCCCCCCn1cccc1/C=C/c1cc(OCCCC)c(/C=C/c2cccn2CCCCCCCCCCCC)cc1OCCCC
fluorescence lifetime (in Cc1ccccc1): 1.26 ns

CCOC(=O)C1=CN(Cc2ccccc2)C=C(C(=O)OCC)C1
fluorescence lifetime (in C1CCOC1): 25.6 ns
fluorescence lifetime (in CO): 28.2 ns

c1ccc2c(c1)c1ccccc1c1[nH]c(-c3ccc(-c4nc5c6ccccc6c6ccccc6c5[nH]4)cc3)nc21
fluorescence lifetime (in CS(C)=O): 1.25 ns

CN(C)c1ccc2c(c1)C(=O)NC2=O
fluorescence lifetime (in C1CCOC1): 13.8 ns
fluorescence lifetime (in C1COCCO1): 14.9 ns
fluorescence lifetime (in CC#N): 3.9 ns

Cc1cc(C)c2c(c1)c1cc(C)cc(C)c1n2-c1ccc2c(c1)B(c1c(C(C)C)cc(C(C)C)cc1C(C)C)c1cc(-n3c4c(C)cc(C)cc4c4cc(C)cc(C)c43)ccc1N2c1ccccc1
fluorescence lifetime [2]: 9 ns

CC1=CC(C)=[N+]2C1=C(c1ccc(I)cc1)c1c(C)cc(C)n1[B-]2(Oc1ccc(Cl)cc1)Oc1ccc(Cl)cc1
fluorescence lifetime (in ClC(Cl)Cl): 0.37 ns

CCOC(=O)COc1ccc(/C=C/C2=C3c4ccccc4C(c4[nH]c(C)cc4C)=[N+]3[B-](F)(F)n3c(/C=C/c4ccc(OCC(=O)OCC)cc4)cc(C)c32)cc1
fluorescence lifetime (in ClCCl): 4.82 ns
